This series relates to neutralizing antibodies to the IL-23 receptor antagonist peptide. Conditions: through Week 16.

Data on 1 molecule can be found in patent US20260232767A1, “INTERLEUKIN-23 RECEPTOR ANTAGONIST PEPTIDES FOR USE IN THE TREATMENT OF PSORIASIS” (Janssen Pharmaceutica NV, priority 2023, published 2026).

SMILES strings stand for the structures. Like-named read-outs stand apart in the source and are kept apart here.

For `CC(=O)NCCCC[C@@H]1NC(=O)[C@H](Cc2c[nH]c3c(C)cccc23)NC(=O)[C@H]([C@@H](C)O)NC(=O)[C@H](CC(N)=O)NC(=O)[C@@H](NC(C)=O)C(C)(C)SSC(C)(C)[C@@H](C(=O)N[C@@H](Cc2ccc(OCCN)cc2)C(=O)N[C@@H](Cc2ccc3ccccc3c2)C(=O)NC2(C(=O)N[C@@H](CCC(=O)O)C(=O)N[C@@H](CC(N)=O)C(=O)N[C@@H](Cc3cccnc3)C(=O)N(C)CC(N)=O)CCOCC2)NC1=O` [IL-23 receptor antagonist peptide, Ac-[Pen]*-N-T-[W(7-Me)]-[Lys(Ac)]-[Pen]*-Phe[4-(2-aminoethoxy)]-[2-Nal]-[THP]-E-N-[3-Pal]-Sarc-NH2 (*[Pen]-[Pen]* formdisulfidebond)], the “NAb result of ADA-positive samples” value was “negative”. Moreover, for the setting “25 mg QD, 1 evaluable”, the “Subjects negative for neutralizing antibodies, %” value (“Subjects negative … %” for short) was “(100%)”. Moreover, the “Subjects negative … %” value (50 mg QD, 1 evaluable) is on record as “(100%)”. In addition, the “Subjects negative … %” value (100 mg BID, 3 evaluable) was “(100%)”. Moreover, under “100 mg QD, 3 evaluable”, the “Subjects negative … %” value is “(100%)”. Also, the “Subjects negative … %” value (Combined doses, 8 evaluable) is reported as “(100%)”.
